According to article PMC5469451, “Identification of compounds that suppress Toxoplasma gondii tachyzoites and bradyzoites” (PLoS ONE, 2017):
Read-outs that look alike come from different tables or passages of the source.

Tests used:
[1] = tested on: HFF cells; test: Host cell viability in bradyzoite differentiation condition; assay type: cell-based, human
Description: To evaluate the host cell viability in bradyzoite differentiation condition, HFF cells were incubated for 48 h in DMEM containing 25 mM HEPES pH 8.1 and 1% FBS and measured the viability as described above.

[2] = Host cell cytotoxicity assay (Cell-Titer Glo), HFF cells; assay type: cell-based, human; conditions: human, 2.5 μM, 48 h, HFF cells, read-out: Host cell viability (%)
Description: (§1) Vero cells and HFF cells were both used as host cells because both cell types were used for the parasite screening. After incubation for 48 h in DMEM supplemented with 5% FBS, L-glutamine, penicillin, and streptomycin, cell viabilities were measured by using a Cell-Titer Glo kit (Promega) following the manufacturer’s instructions. Control wells were treated with DMSO alone in culture medium to calculate the 100% viability for each cell type.

[3] = tested on: HFF cells; test: as above; assay type: cell-based, human; conditions: 25 μM, 48 h, HFF cells, compared with DMSO
Description: as §1

[4] = tested on: PruΔku80Δhxgprt in HFF cells; test: Immunofluorescence-based assay on spontaneously induced bradyzoites; assay type: cell-based, Toxoplasma gondii; conditions: 10, 2, 0.4, 0.08 μM, 48 h; for Bradyzoite differentiation (GFP-positive PV rate): compared with DMSO
Description: PruΔku80Δhxgprt, which expresses GFP under the control of a bradyzoite-specific gene LDH2 promoter, [13] was used. HFF host cells were seeded to a 96-well glass bottom plate (MGB096-1-2-LG-L, Brooks Automation, MA, USA) and cultured until confluent. Parasites were freshly lysed by passing them through 27 G needles and were purified by passing them through a 5-μm-pore filter. Five thousand parasites in 100 μL of culture medium were added and mixed with an equal volume of compound-containing medium to give final drug concentrations of 10, 2, 0.4, and 0.08 μM in 0.2% DMSO. After incubation at room temperature for 10 min, the infected host cells were incubated for 48 h at 37°C in a 5% CO2 incubator. After incubation, the cells were fixed with 4% paraformaldehyde in PBS for 20 min, quenched, and permeabilized with 0.2 M glycine and 0.2% TritonX-100 in PBS for 20 min, and then blocked with 3% BSA and 0.1% Tween 20 in PBS (blocking buffer); each procedure was performed at room temperature and was followed by washes with PBS three times. All parasites were stained with an anti-Toxoplasma mouse antibody (antisera produced in ME49-infected mice), and bradyzoites were detected with an anti-GFP rabbit monoclonal antibody (Life Technologies). Secondary antibodies for mouse (Alexa633 conjugated) and rabbit (Alexa488 conjugated) and DAPI were used to develop the fluorescent signal. Stained cells on 96-well plates were analyzed with a CompuCyte iCys Research Imaging Cytometer (Beckman Coulter, IN, USA).

[5] = tested on: PLK/DLUC_1C9 in vitro-induced bradyzoites in HFF cells; test: Effect on in vitro-induced bradyzoites (Dual-Glo firefly luciferase, BAG1 promoter); assay type: cell-based, Toxoplasma gondii; conditions: 3 days bradyzoite induction, then 10, 5, 2.5, 1 μM for 48 h; relative to DMSO
Description: To measure the effect of tanshinone IIA and hydroxyzine on in vitro-induced bradyzoites, we used PLK/DLUC_ 1C9 parasites and the Dual-Glo luciferase assay. Briefly, HFF cells in 96-well plates were infected with 1 x 10^4 parasites/well and incubated for 3 days with ambient CO2 condition in DMEM containing 25 mM HEPES pH 8.1 and 1% FBS to induce bradyzoites. Induced bradyzoites were treated with 10, 5, 2.5, and 1 μM compounds under bradyzoite-inducing conditions. After 48 h, luciferase activities were measured by using the Dual-Glo assay system (Promega) and normalized by host cell number.

[6] = tested on: RH-2F tachyzoites (type I strain) in HFF cells; test: Confirmatory screening: RH-2F β-galactosidase growth assay in HFF cells; assay type: cell-based, Toxoplasma gondii; conditions: for IC50: RH-2F in HFF cells, β-galactosidase assay, read-out: IC50 for parasite growth (95% CI)
Description: In the confirmatory screening, we utilize an RH strain β-galactosidase reporter parasite termed RH-2F (a type I strain). Briefly, RH-2F parasites were purified from freshly lysed infected host cells and used to infect confluent HFF cells cultured in 96-well plates. Five hundred parasites were added to each well, along with each test compound and 50 μL of culture medium. Plates were then incubated for 10 min at room temperature followed by an incubation at 37°C for 48 h in a CO2 incubator.
(§2) To measure the effects of tanshinone IIA and hydroxyzine on intracellular parasite growth, parasites were allowed to invade for 2 h, uninvaded parasites were washed away, and medium with compounds was added. After 48 h, the plates were frozen at -80°C. Plates were then thawed just prior to the measurement of beta-galactosidase activity. Beta-Glo (Promega) was used to measure β-galactosidase activity following the manufacturer’s instructions.

[7] = Host cell cytotoxicity assay (Cell-Titer Glo), Vero cells; assay type: cell-based; conditions: African green monkey; 10 μM, 48 h, Vero cells; DMSO = 100%; read-out: Host Viability (%)
Description: as §1, with “Host cells were treated with compounds at the same concentration used for screening (i.e., 0.5% DMSO and 10 μM compound). Vero” for “Vero”

[8] = tested on: PLK/DLUC_1C9 parasites in HFF cells; test: Bradyzoite differentiation assay, relative BAG1 promoter activity (Dual-Glo); assay type: cell-based, Toxoplasma gondii; conditions: 1 μM hydroxyzine, 2.5 μM tanshinone IIA; added 24 h after infection, 48 h treatment
Description: To measure bradyzoite induction activities of tanshinone IIA and hydroxyzine, PLK/DLUC_1C9 parasites were purified and then inoculated at a concentration of 2.0 x 10^4 parasites/well into 12-well plates containing confluent monolayers of HFF cells. Cells were incubated for 24 h after infection, then compounds were added, and the cells were incubated for 48 h. After incubation, the cells in each well were lysed using 200 μL of Passive Lysis Buffer (Promega) and the lysates were stored at -80°C. For the luciferase assay, 25 μL of lysate was used and the Renilla and firefly luciferase activities were measured by using Dual-Glo (Promega) according to the manufacturer’s instruction.

[9] = tested on: PLK/DLUC_1C9 tachyzoites in Vero cells; test: Primary screening: T. gondii growth assay, Renilla luciferase; assay type: cell-based, Toxoplasma gondii; conditions: Toxoplasma gondii; 10 μM, 48 h, PLK/DLUC_1C9 in Vero cells; DMSO = 0%, 10 μM pyrimethamine = 100%; read-out: Parasite Inhibition (%)
Description: In the primary screening, purified PLK/DLULC_1C9 tachyzoites were incubated with Vero cells at a multiplicity of infection (MOI) of 0.5. After a 2-h incubation, the infected host cells were trypsinized to obtain a cell suspension and then these suspended infected cells were inoculated into 96-well optical bottom plates containing the compound library. Each well was inoculated with 2500 cells in 25 μL of culture medium. […] Following cell inoculation, each well therefore contained 0.5% DMSO and 10 μM compound. After 48 h of culture, Renilla luciferase activity was measured by using Renilla-Glo (Promega, WI, USA) following the manufacturer’s instructions. […] The Z’-value for each plate was calculated from the Renilla luciferase activity in the negative and positive control wells.

[10] = tested on: RH-2F intracellular parasites in HFF cells; test: Intracellular parasite growth after invasion (β-galactosidase); assay type: cell-based, Toxoplasma gondii; conditions: uninvaded parasites washed away, 48 h; 1.0 μM hydroxyzine, 2.5 μM tanshinone IIA, 25 mg/ml DS10
Description: as §2

[11] = 2.5 μM, 48 h, RH-2F in HFF, compared with 10 μM pyrimethamine

In the case of `Cc1coc2c1C(=O)C(=O)c1c-2ccc2c1CCCC2(C)C` [Tanshinone IIA], the “Host cell viability under the bradyzoite-inducing condition” value ([1]; HFF, pH 8.1, 1% FBS, 48 h) is reported as “slightly reduced the host cell number”, the viability at 2.5 µM [2] is reported as 99% and the “Host cell viability (%)” value [3] is reported as 75%. For the same compound, the “Parasite growth (total parasite vacuole size)” value [4] was “reduced parasite growth in a concentration-dependent manner”, the “Bradyzoite differentiation (GFP-positive PV rate)” value (“Bradyzoite differentiation” below) [4] was “did not induce bradyzoite differentiation even at high concentrations” and the “Bradyzoite number (firefly luciferase under BAG1 promoter, normalized by host cell number)” value [5] was “reduced the bradyzoite number”. The “Parasite inhibition (%)” value [6, 11] was 55%, the inhibition at 2.5 µM ([6]; Toxoplasma gondii, HFF, 48 h, 2.5 μM, 48 h, RH-2F in HFF, compared with 10 μM pyrimethamine, read-out: Parasite inhibition (%)) was greater than 50% and the inhibition at 25 µM ([6]; Toxoplasma gondii, HFF, 48 h, 48 h, RH-2F in HFF, compared with 10 μM pyrimethamine, read-out: Parasite inhibition (%)) was 112%. The IC50 ([6]; Toxoplasma gondii) was 2500 nM, the viability at 10 µM [7] was 83% and the “Relative BAG1 promoter activity (bradyzoite ratio) compared with 5 μM pyrimethamine treatment” value [8] was 4.7%. For the same compound, the inhibition at 10 µM [9] was 91% and the “Parasite growth when compound added after 2 h invasion window” value [10] was “reduced parasite growth in a dose dependent manner”.

With `CCc1nc(N)nc(N)c1-c1ccc(Cl)cc1` [Pyrimethamine] the “Parasite growth (total parasite vacuole size)” value [4] was “reduced parasite growth in a concentration-dependent manner”, the “Bradyzoite differentiation” value [4] was “induced bradyzoite differentiation” and the “Bradyzoite number (firefly luciferase under BAG1 promoter, normalized by host cell number)” value [5] was “cannot reduce bradyzoite numbers”.

For `OCCOCCN1CCN(C(c2ccccc2)c2ccc(Cl)cc2)CC1` (stereo not shown) [Hydroxyzine], the “Host cell viability under the bradyzoite-inducing condition” value ([1]; pH 8.1) was “did not affect the host cell viability”, the viability at 48 h, 2.5 µM [2] was 102% and the “Host cell viability (%)” value [3] was 100%. The “Host cell viability (%)” value ([3]; listed as hydroxyzine) was “no effect on host cell viability”, the “Parasite growth (total parasite vacuole size)” value [4] was “reduced parasite growth in a concentration-dependent manner” and the “Bradyzoite differentiation” value [4] was “did not induce bradyzoite differentiation even at high concentrations”. The “Bradyzoite number (firefly luciferase under BAG1 promoter, normalized by host cell number)” value [5] was “reduced the bradyzoite number”, the “Parasite inhibition (%)” value [6, 11] was 100% and the inhibition at 25 µM ([6]; Toxoplasma gondii, 48 h, RH-2F in HFF, compared with 10 μM pyrimethamine, read-out: Parasite inhibition (%)) was 107%. For the same compound, the IC50 ([6]; Toxoplasma gondii) was 1000 nM, the viability at 48 h, 10 µM [7] was 101% and the “Relative BAG1 promoter activity (bradyzoite ratio) compared with 5 μM pyrimethamine treatment” value [8] was 0.4%. The inhibition at 10 µM [9] was 97% and the “Parasite growth when compound added after 2 h invasion window” value [10] was “reduced parasite growth in a dose dependent manner”.
